Data as given in ChEMBL document CHEMBL1201862, “PubChem BioAssay data set” (2004).
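Protocol summary: plate cells (96-well), add compound at 5 concentrations, incubate 48 h, interpolate endpoints linearly. GI50 is the concentration that inhibits growth by half.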 Activity calls are given as the source filed them. No stated cut-off is given here; in the data, active = GI50 up to about 1.1 µM and inactive = higher.

What was measured:
Assay in all cases: NCI tumour cell line growth inhibition, 48 h
CAKI-1 = system: CAKI-1
LXFL 529 = system: LXFL 529
RPMI-8226 = system: RPMI-8226
ACHN = system: ACHN
DMS-273 = system: DMS-273
SK-MEL-2 = system: SK-MEL-2
M19-MEL = system: M19-MEL
NCI-H460 = system: NCI-H460
IGROV-1 = system: IGROV-1
SF-268 = system: SF-268
HT-29 = system: HT-29
MOLT-4 = system: MOLT-4
U-251 = system: U-251
KM-20L2 = system: KM-20L2
UACC-62 = system: UACC-62
K562 = system: K562
UACC-257 = system: UACC-257
SK-OV-3 = system: SK-OV-3
NCI-H23 = system: NCI-H23
HL-60 = system: HL-60
HCT-15 = system: HCT-15
SW-620 = system: SW-620
EKVX = system: EKVX
Malme-3M = system: Malme-3M
DLD-1 = system: DLD-1
TK-10 = system: TK-10
SN12C = system: SN12C
HOP-92 = system: HOP-92
KM12 = system: KM12
CCRF-CEM = system: CCRF-CEM
NCI-H226 = system: NCI-H226
SF-295 = system: SF-295
OVCAR-5 = system: OVCAR-5
A498 = system: A498
OVCAR-4 = system: OVCAR-4
786-0 = system: 786-0
XF498 = system: XF498
COLO 205 = system: COLO 205
LOX IMVI = system: LOX IMVI
UO-31 = system: UO-31
HCC 2998 = system: HCC 2998
OVCAR-3 = system: OVCAR-3
SNB-19 = system: SNB-19
M14 = system: M14
HOP-18 = system: HOP-18
DMS-114 = system: DMS-114
NCI-H522 = system: NCI-H522
OVCAR-8 = system: OVCAR-8
A549 = system: A549
HCT-116 = system: HCT-116
SF-539 = system: SF-539
NCI/ADR-RES = system: NCI/ADR-RES
MDA-MB-435 = system: MDA-MB-435
HOP-62 = system: HOP-62
SNB-78 = system: SNB-78
SK-MEL-5 = system: SK-MEL-5
SNB-75 = system: SNB-75
DU-145 = system: DU-145
MCF7 = system: MCF7
Hs-578T = system: Hs-578T
SR = system: SR
MDA-N = system: MDA-N
SK-MEL-28 = system: SK-MEL-28
T47D = system: T47D
RXF 393 = system: RXF 393
BT-549 = system: BT-549
MDA-MB-231 = system: MDA-MB-231
PC-3 = system: PC-3

## O=C(CCC(=O)Nc1ccc(Cl)c(Cl)c1)CC(=O)c1ccc(Cl)cc1
CAKI-1
  GI50: > 100 µM (inactive)
LXFL 529
  GI50: 83.9 µM (inactive)
RPMI-8226
  GI50: > 100 µM (inactive)
ACHN
  GI50: > 100 µM (inactive)
DMS-273
  GI50: > 100 µM (inactive)
SK-MEL-2
  GI50: > 100 µM (inactive)
M19-MEL
  GI50: > 100 µM (inactive)
NCI-H460
  GI50: > 100 µM (inactive)
IGROV-1
  GI50: > 100 µM (inactive)
SF-268
  GI50: > 100 µM (inactive)
HT-29
  GI50: > 100 µM (inactive)
MOLT-4
  GI50: > 100 µM (inactive)
U-251
  GI50: > 100 µM (inactive)
KM-20L2
  GI50: > 100 µM (inactive)
UACC-62
  GI50: 47.8 µM (inactive)
K562
  GI50: > 100 µM (inactive)
UACC-257
  GI50: > 100 µM (inactive)
SK-OV-3
  GI50: > 100 µM (inactive)
NCI-H23
  GI50: > 100 µM (inactive)
HL-60
  GI50: > 100 µM (inactive)
HCT-15
  GI50: > 100 µM
SW-620
  GI50: > 100 µM (inactive)
EKVX
  GI50: > 100 µM (inactive)
Malme-3M
  GI50: > 100 µM (inactive)
DLD-1
  GI50: > 100 µM (inactive)
TK-10
  GI50: > 100 µM (inactive)
SN12C
  GI50: > 100 µM (inactive)
HOP-92
  GI50: 24.8 µM (inactive)
KM12
  GI50: > 100 µM (inactive)
CCRF-CEM
  GI50: > 100 µM (inactive)
NCI-H226
  GI50: > 100 µM (inactive)
SF-295
  GI50: > 100 µM (inactive)
OVCAR-5
  GI50: > 100 µM (inactive)
A498
  GI50: > 100 µM (inactive)
OVCAR-4
  GI50: > 100 µM (inactive)
786-0
  GI50: > 100 µM (inactive)
XF498
  GI50: > 100 µM (inactive)
COLO 205
  GI50: > 100 µM (inactive)
LOX IMVI
  GI50: > 100 µM (inactive)
UO-31
  GI50: > 100 µM (inactive)
HCC 2998
  GI50: > 100 µM (inactive)
OVCAR-3
  GI50: > 100 µM (inactive)
SNB-19
  GI50: > 100 µM (inactive)
M14
  GI50: > 100 µM (inactive)
HOP-18
  GI50: 80.7 µM (inactive)
DMS-114
  GI50: > 100 µM (inactive)
NCI-H522
  GI50: > 100 µM (inactive)
OVCAR-8
  GI50: > 100 µM (inactive)
A549
  GI50: > 100 µM (inactive)
HCT-116
  GI50: > 100 µM (inactive)
SF-539
  GI50: > 100 µM (inactive)

## O=C(/C=C/c1ccc(O)cc1)c1ccc(O)cc1 [4,4'-DIHYDROXYCHALCONE]
CAKI-1
  GI50: 18.1 µM (inactive)
NCI/ADR-RES
  GI50: 21.6 µM (inactive)
RPMI-8226
  GI50: 11.2 µM (inactive)
ACHN
  GI50: 23.9 µM (inactive)
MDA-MB-435
  GI50: 40.2 µM (inactive)
DMS-273
  GI50: 16.5 µM (inactive)
SK-MEL-2
  GI50: 19.6 µM (inactive)
M19-MEL
  GI50: 21.7 µM (inactive)
HOP-62
  GI50: 21.8 µM (inactive)
SNB-78
  GI50: 45.2 µM (inactive)
SK-MEL-5
  GI50: 21.5 µM (inactive)
SNB-75
  GI50: 20.9 µM (inactive)
NCI-H460
  GI50: 26.8 µM (inactive)
IGROV-1
  GI50: 32.1 µM (inactive)
SF-268
  GI50: 21.4 µM (inactive)
HT-29
  GI50: 19.9 µM (inactive)
DU-145
  GI50: 34.2 µM (inactive)
MOLT-4
  GI50: 19.3 µM (inactive)
U-251
  GI50: 18 µM (inactive)
KM-20L2
  GI50: 20.3 µM (inactive)
MCF7
  GI50: 32.9 µM (inactive)
UACC-62
  GI50: 25.5 µM (inactive)
K562
  GI50: 27.2 µM (inactive)
UACC-257
  GI50: 29.5 µM (inactive)
Hs-578T
  GI50: 27 µM (inactive)
SK-OV-3
  GI50: 42.6 µM (inactive)
SR
  GI50: 9.71 µM (inactive)
NCI-H23
  GI50: 25.5 µM (inactive)
HL-60
  GI50: 17 µM (inactive)
MDA-N
  GI50: 27.4 µM (inactive)
SK-MEL-28
  GI50: 28.1 µM (inactive)
HCT-15
  GI50: 20.3 µM
SW-620
  GI50: 26.1 µM (inactive)
EKVX
  GI50: 42.3 µM (inactive)
Malme-3M
  GI50: 27.7 µM (inactive)
DLD-1
  GI50: 18 µM (inactive)
TK-10
  GI50: 46.9 µM (inactive)
SN12C
  GI50: 31.2 µM (inactive)
T47D
  GI50: 44.1 µM (inactive)
HOP-92
  GI50: 31.6 µM (inactive)
RXF 393
  GI50: 22.9 µM (inactive)
KM12
  GI50: 11.9 µM (inactive)
CCRF-CEM
  GI50: 13.6 µM (inactive)
NCI-H226
  GI50: 16.8 µM (inactive)
SF-295
  GI50: 31.8 µM (inactive)
OVCAR-5
  GI50: 33.3 µM (inactive)
A498
  GI50: 31 µM (inactive)
OVCAR-4
  GI50: > 69.8 µM (inactive)
786-0
  GI50: 23.2 µM (inactive)
XF498
  GI50: 19.3 µM (inactive)
COLO 205
  GI50: 30.4 µM (inactive)
BT-549
  GI50: 32.6 µM (inactive)
LOX IMVI
  GI50: 11.4 µM (inactive)
MDA-MB-231
  GI50: 43.7 µM (inactive)
UO-31
  GI50: 22 µM (inactive)
HCC 2998
  GI50: 24 µM (inactive)
OVCAR-3
  GI50: 22 µM (inactive)
SNB-19
  GI50: 32.7 µM (inactive)
M14
  GI50: 18.8 µM (inactive)
HOP-18
  GI50: 35.2 µM (inactive)
DMS-114
  GI50: 18.9 µM (inactive)
NCI-H522
  GI50: 3.94 µM (inactive)
PC-3
  GI50: 28.7 µM (inactive)
OVCAR-8
  GI50: 16.7 µM (inactive)
A549
  GI50: 30.5 µM (inactive)
HCT-116
  GI50: 16.8 µM (inactive)
SF-539
  GI50: 21.1 µM (inactive)
